Data: US12403151B2, “Compositions for use in the promotion of intestinal muscle growth and development and associated intestinal motility” (SOCIETE DES PRODUITS NESTLE S.A., priority 2017, dated 2025)
Entries after “also recorded” stand apart in the source; their conditions may differ.

System: muscle layer of the ileum
Assay: Thickness of the muscle layer of the ileum in young IUGR rats supplemented with HMOs
Type: in vivo, Sprague-Dawley rats
Details: IUGR rat pups; 3 g/kg body weight HMO by gavage d7 to d21, then 4.5% HMO in diet d22 to d57 (mix: LNnT:2FL 1:2 by weight, 1.5% + 3%); sacrificed at day 57; H&E histology; compared with Normal and IUGR control groups
From the text: Three groups of time-mated pregnant Sprague-Dawley female rats were bought from Charles River laboratories. One group was submitted to food restriction of 60% during the last 10 days of gestation and their offspring were cross-fostered to normally fed rats. A second group of pregnant females was normally fed and their offspring cross-fostered among the same group of dams. Immediately after birth (postnatal day 2 (d=2)), the born rat pups—subjects of the experiment—were assigned to one of the following groups: • Normal group (positive control): Normal-weight offspring born from unrestricted dams and fed after birth a normal non-supplemented diet; • IUGR group (negative control; n=20): IUGR rats being fed a normal diet after birth; • IUGR rats+HMO (test groups): During the experiment, they were reared by their mothers for 21 days and supplemented with HMOs (2-FL, LNnT or the Mix of 2-FL and LNnT). At weaning, they were fed a diet supplemented with the same HMOs, see details below. […]
Rats were sacrificed at day 57 after a 6-hr fasting period and samples of the small intestine were collected. The thickness of the muscle layer was measured on a sample of the ileum. […]

Compound	thickness of the muscle layer of the ileum (mean per group, FIG. 1)
CC(=O)N[C@H]1[C@H](O[C@H]2[C@@H](O)[C@@H](CO)O[C@@H](O[C@H]3[C@H](O)[C@@H](O)C(O)O[C@@H]3CO)[C@@H]2O)O[C@H](CO)[C@@H](O[C@@H]2O[C@H](CO)[C@H](O)[C@H](O)[C@H]2O)[C@@H]1O (mixture of isomers) [LNnT, lacto-N-neotetraose]	successful in increasing the thickness; also recorded: increase of the ileum muscle thickness over both the Normal and the IUGR groups
2′-fucosyllactose [2FL, reference compound]	no increase in intestinal muscle thickness
